Assay results from ChEMBL document CHEMBL3862033 (J Med Chem, 2016).
pIC50: −log10 of the molar value.

How the values were obtained:
[1] = molecular target: 5-hydroxytryptamine receptor 2A (Homo sapiens, UniProt P28223); assay: Agonist activity at human 5-HT2AR expressed in Flp-In HEK cells assessed as calcium mobilization at 10 uM measured for 2 mins by Fluo-4 dye based FLIPR assay; type: cell-based; settings: hek293, 2 min
Cytochrome P450 2D6 = Cytochrome P450 2D6 (Homo sapiens, UniProt P10635); assay: Inhibition of CYP2D6 (unknown origin); type: ADME
Cytochrome P450 3A4 = Cytochrome P450 3A4 (Homo sapiens, UniProt P08684); assay: Inhibition of CYP3A4 (unknown origin); type: ADME
Adenosine receptor A2a = Adenosine receptor A2a (Homo sapiens, UniProt P29274); assay: Displacement of [3 H]2-[p-(2-carboxyethyl)phenyl-ethylamino]-5'-N-ethylcarboxamidoadenosine from recombinant human adenosine receptor A2A expressed in HEK293 cell membranes at 10 uM after 60 mins by liquid scintillation counting method relative to control
Sequence of Adenosine receptor A2a (P29274 whole entry): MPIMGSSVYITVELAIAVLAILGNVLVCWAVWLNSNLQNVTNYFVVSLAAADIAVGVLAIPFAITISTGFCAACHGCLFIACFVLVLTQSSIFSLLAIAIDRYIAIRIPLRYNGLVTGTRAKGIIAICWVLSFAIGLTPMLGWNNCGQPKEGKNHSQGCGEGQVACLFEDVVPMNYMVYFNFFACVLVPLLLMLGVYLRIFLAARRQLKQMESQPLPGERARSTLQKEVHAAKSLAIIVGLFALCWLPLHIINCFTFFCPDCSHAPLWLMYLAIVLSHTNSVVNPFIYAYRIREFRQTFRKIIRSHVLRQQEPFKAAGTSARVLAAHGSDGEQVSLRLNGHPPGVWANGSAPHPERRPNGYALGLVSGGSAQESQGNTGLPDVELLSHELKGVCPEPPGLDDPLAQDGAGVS

Sequence of Cytochrome P450 3A4 (P08684 whole entry): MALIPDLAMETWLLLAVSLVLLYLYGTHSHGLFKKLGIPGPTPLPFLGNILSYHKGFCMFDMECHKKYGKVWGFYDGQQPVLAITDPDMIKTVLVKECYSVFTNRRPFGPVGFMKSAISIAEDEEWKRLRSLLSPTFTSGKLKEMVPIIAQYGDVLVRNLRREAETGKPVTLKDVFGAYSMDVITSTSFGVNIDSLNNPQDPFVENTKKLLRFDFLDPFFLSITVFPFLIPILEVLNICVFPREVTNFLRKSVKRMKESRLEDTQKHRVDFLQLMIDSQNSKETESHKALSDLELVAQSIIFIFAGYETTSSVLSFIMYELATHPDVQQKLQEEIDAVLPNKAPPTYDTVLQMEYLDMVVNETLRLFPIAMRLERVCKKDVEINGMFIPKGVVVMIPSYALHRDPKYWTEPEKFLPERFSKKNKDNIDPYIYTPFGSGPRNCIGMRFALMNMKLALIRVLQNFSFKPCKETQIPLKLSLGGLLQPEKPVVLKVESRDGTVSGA
Sequence of Cytochrome P450 2D6 (P10635 whole entry): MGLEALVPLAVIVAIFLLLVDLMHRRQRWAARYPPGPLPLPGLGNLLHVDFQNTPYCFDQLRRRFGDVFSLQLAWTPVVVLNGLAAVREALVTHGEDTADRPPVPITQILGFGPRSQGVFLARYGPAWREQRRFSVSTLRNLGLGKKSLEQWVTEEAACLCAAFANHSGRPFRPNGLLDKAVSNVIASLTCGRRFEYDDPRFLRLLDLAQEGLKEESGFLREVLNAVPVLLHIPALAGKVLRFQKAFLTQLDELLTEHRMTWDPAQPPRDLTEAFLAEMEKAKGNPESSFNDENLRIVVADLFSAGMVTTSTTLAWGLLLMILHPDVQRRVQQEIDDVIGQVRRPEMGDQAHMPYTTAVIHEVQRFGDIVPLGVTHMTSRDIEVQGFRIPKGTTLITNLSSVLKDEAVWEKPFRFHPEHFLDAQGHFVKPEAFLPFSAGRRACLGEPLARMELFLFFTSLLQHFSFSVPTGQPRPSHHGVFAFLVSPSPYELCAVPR
Sequence of 5-hydroxytryptamine receptor 2A (P28223 whole entry): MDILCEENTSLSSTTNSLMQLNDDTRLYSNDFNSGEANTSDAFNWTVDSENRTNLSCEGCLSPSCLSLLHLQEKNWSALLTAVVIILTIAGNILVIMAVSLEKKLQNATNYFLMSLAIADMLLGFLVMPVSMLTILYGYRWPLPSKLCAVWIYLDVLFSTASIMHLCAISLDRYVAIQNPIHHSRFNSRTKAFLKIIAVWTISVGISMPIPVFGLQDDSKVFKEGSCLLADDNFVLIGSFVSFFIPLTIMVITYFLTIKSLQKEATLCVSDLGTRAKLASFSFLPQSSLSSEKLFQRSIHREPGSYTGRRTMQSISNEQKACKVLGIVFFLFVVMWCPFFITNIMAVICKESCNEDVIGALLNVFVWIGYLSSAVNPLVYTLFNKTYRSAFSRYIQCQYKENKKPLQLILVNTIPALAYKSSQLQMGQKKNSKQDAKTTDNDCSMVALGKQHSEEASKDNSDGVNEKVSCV

## CCOC(=O)[C@@]12C[C@@H]1[C@@H](n1cnc3c(NC(C4CC4)C4CC4)nc(Cl)nc31)[C@H](O)[C@@H]2O
[1]
  Activity: > 10%

## CNC(=O)[C@@]12C[C@@H]1[C@@H](n1cnc3c(NC(C4CC4)C4CC4)nc(Cl)nc31)[C@H](O)[C@@H]2O
Cytochrome P450 2D6
  pIC50: < 4.52
Cytochrome P450 3A4
  pIC50: < 4.52

## COC(=O)[C@@]12C[C@@H]1[C@@H](n1cnc3c(NC(C4CC4)C4CC4)nc(Cl)nc31)[C@H](O)[C@@H]2O
Adenosine receptor A2a
  inhibition: 33%
